Assay results published in patent publication US9999650B2, “Peptide and peptidomimetic inhibitors” (Ra Pharmaceuticals, Inc., priority 2012, dated 2018).
Numbered stars: 1 amine (or outer) side, 2 acyl side, 3 side chain; on linkers, the order of the positions; unused ones are H or OH. Bridge positions count the residues as written; N and C are the ends. Square brackets hold non-standard residues; d marks the D form. Peptide text beside a SMILES is read from it. mXylylene = c1cc(C[*:1])cc(C[*:2])c1; Phg = N[C@H](C(=O)O)c1ccccc1; Tle = CC(C)(C)[C@H](N)C(=O)O; Nva = CCC[C@H](N)C(=O)O; Mpa = O=C(O)CCS

What was measured:
Type in all cases: biochemical
[1] = target: T1, Factor XIIa (Homo sapiens, UniProt P00748); assay: Inhibitor specificity IC50 assay, Factor XIIa (Boc-Gln-Gly-Arg-AMC); details: substrate Boc-Gln-Gly-Arg-AMC
T1 construct: Factor XIIa (Enzyme Research Laboratories, South Bend, Ind.); purchased Enzyme Research Laboratories
T1 sequence (P00748 373-615 limits assumed): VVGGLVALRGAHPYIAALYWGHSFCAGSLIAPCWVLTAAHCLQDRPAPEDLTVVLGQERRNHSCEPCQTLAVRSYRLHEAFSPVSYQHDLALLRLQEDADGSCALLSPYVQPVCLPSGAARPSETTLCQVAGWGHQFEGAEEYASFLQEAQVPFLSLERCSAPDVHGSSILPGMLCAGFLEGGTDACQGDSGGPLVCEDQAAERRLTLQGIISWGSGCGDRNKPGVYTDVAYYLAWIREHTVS
Protocol: (§1) Activated human plasma kallikrein (Enzyme Research Laboratories, HPKa 1303) was reacted with H-Pro-Phe-Arg-7-amido-4-methylcoumarin (H-Pro-Pre-Arg-AMC) (a fluorogenic substrate for plasma as well as pancreatic and urinary kallikreins; Bachem I-1295) and candidate inhibitory peptides to determine the IC50 of the inhibitor.
(§2) Ten 8-fold serial dilutions of peptides (10 mM DMSO stocks) were performed in DMSO and then added to TCNB (50 mM Tris-HCl pH 7.2, 150 mM NaCl, 10 mM CaCl2, 0.05% Brij-35) and sonicated. 50 μL of the peptide dilutions were added to microtitre plates (96 well, black non-binding surface, Corning, 3650) and incubated for 5 minutes at room temperature with 4 nM activated human kallikrein (final concentration after addition of fluorogenic substrate: 1 nM). The samples were then incubated for 1 hour at room temperature with 2 mM H-Pro-Phe-Arg-AMC (final concentration 500 μM). Relative Fluorescence Units (RFU) were measured at excitation/emission 360 nm/460 nm by a SpectraMax M3.
(§3) To determine the specificity of peptide inhibitors, an IC50 assay, as described in Example 4, was performed on a variety of serine proteases related to human plasma kallikrein. The enzymes tested include mouse plasma kallikrein (R&D Systems, Minneapolis, Minn.), and the human enzymes Factor VIIa (Enzyme Research Laboratories, South Bend, Ind.), Factor Xa (Enzyme Research Laboratories, South Bend, Ind.), Factor XIa (Enzyme Research Laboratories, South Bend, Ind.), Factor XIIa (Enzyme Research Laboratories, South Bend, Ind.), tissue kallikrein KLK13 (R&D Systems, Minneapolis, Minn.), thrombin (Enzyme Research Laboratories, South Bend, Ind.) and plasmin (Enzyme Research Laboratories, South Bend, Ind.).
(§4) Each enzyme was tested with the following specific fluorgenic substrates (available from Bachem; Torrance, Calif.): mouse plasma kallikrein (Pro-Phe-Arg-AMC), Factor VIIa (Boc-Val-Pro-Arg-AMC), Factor Xa (Boc-Gln-Gly-Arg-AMC), Factor XIa (Boc-Gln-Gly-Arg-AMC), Factor XIIa (Boc-Gln-Gly-Arg-AMC), KLK13 (Boc-Val-Pro-Arg-AMC), thrombin (Boc-Val-Pro-Arg-AMC) and plasmin (Boc-Val-Leu-Lys-AMC). Peptide inhibitors R2006, R2010, R2012, R2019, R2023, R2030, R2036, R2041, R2047, R2104 and R2051 were assayed.

[2] = target: T2, Factor Xa (Homo sapiens, UniProt P00742); assay: Inhibitor specificity IC50 assay, Factor Xa (Boc-Gln-Gly-Arg-AMC); details: substrate Boc-Gln-Gly-Arg-AMC
T2 construct: Factor Xa (Enzyme Research Laboratories, South Bend, Ind.); purchased Enzyme Research Laboratories
T2 sequence (P00742 41-179 limits assumed): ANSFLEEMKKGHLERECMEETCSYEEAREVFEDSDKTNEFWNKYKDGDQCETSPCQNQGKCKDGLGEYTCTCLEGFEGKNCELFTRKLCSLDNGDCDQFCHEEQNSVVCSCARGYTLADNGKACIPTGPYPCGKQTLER
T2 sequence (P00742 235-488 limits assumed): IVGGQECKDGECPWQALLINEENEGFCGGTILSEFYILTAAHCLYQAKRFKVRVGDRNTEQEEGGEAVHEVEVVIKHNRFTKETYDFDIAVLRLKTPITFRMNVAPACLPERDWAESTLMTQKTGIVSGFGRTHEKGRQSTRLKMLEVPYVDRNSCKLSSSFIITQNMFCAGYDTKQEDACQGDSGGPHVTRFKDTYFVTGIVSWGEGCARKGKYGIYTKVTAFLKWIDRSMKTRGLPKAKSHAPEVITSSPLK
Protocol: as §1, §2, §3, §4

[3] = target: T3, thrombin (Homo sapiens, UniProt P00734); assay: Inhibitor specificity IC50 assay, thrombin (Boc-Val-Pro-Arg-AMC); details: substrate Boc-Val-Pro-Arg-AMC
T3 construct: thrombin (Enzyme Research Laboratories, South Bend, Ind.); purchased Enzyme Research Laboratories
Protocol: as §1, §2, §3, §4

[4] = target: T4, Factor XIa (Homo sapiens, UniProt P03951); assay: Inhibitor specificity IC50 assay, Factor XIa (Boc-Gln-Gly-Arg-AMC); details: substrate Boc-Gln-Gly-Arg-AMC
T4 construct: Factor XIa (Enzyme Research Laboratories, South Bend, Ind.); purchased Enzyme Research Laboratories
T4 sequence (P03951 19-387 limits assumed): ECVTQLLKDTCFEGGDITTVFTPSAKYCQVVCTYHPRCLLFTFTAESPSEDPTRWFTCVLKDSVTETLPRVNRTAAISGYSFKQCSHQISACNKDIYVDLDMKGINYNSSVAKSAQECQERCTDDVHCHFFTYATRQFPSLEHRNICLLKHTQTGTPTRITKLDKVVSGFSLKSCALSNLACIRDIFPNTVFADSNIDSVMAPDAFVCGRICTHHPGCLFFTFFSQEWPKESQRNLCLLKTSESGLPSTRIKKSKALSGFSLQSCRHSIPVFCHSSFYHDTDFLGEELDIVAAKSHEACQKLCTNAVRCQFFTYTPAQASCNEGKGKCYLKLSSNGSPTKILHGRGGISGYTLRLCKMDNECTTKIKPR
T4 sequence (P03951 388-625 limits assumed): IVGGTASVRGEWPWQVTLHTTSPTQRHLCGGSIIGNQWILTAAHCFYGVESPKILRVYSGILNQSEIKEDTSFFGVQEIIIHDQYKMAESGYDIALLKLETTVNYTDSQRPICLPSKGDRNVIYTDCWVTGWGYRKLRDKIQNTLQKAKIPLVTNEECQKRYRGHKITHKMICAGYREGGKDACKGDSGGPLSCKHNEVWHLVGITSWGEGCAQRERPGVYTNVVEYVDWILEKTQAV
Protocol: as §1, §2, §3, §4

[5] = target: T5, Factor VIIa (Homo sapiens, UniProt P08709); assay: Inhibitor specificity IC50 assay, Factor VIIa (Boc-Val-Pro-Arg-AMC); details: substrate Boc-Val-Pro-Arg-AMC
T5 construct: Factor VIIa (Enzyme Research Laboratories, South Bend, Ind.); purchased Enzyme Research Laboratories
T5 sequence (P08709 61-212 limits assumed): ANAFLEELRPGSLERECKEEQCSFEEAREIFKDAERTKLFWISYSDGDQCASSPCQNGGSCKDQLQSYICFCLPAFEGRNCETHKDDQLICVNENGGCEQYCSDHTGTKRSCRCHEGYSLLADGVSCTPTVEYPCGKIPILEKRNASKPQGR
T5 sequence (P08709 213-466 limits assumed): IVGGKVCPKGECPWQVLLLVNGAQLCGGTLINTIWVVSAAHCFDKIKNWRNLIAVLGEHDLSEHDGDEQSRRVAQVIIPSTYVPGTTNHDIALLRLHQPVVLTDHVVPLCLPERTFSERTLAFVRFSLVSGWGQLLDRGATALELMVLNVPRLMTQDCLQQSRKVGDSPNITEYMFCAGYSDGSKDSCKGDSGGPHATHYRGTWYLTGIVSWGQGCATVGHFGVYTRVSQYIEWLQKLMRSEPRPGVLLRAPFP
Protocol: as §2, §3, §4

[6] = target: T6, tissue kallikrein KLK13 (Homo sapiens, UniProt Q9UKR3); assay: Inhibitor specificity IC50 assay, KLK13 (Boc-Val-Pro-Arg-AMC); details: substrate Boc-Val-Pro-Arg-AMC
T6 construct: purchased R&D Systems
T6 sequence (Q9UKR3 17-277): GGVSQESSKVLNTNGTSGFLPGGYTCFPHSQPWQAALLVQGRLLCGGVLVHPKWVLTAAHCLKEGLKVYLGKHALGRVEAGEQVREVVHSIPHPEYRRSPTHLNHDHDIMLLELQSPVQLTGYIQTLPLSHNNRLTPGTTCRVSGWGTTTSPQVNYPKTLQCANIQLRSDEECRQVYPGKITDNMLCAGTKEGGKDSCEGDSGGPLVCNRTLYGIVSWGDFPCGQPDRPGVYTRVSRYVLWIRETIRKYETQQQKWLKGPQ
Protocol: as §1, §2, §3, §4

[7] = target: T7, plasmin (Homo sapiens, UniProt P00747); assay: Inhibitor specificity IC50 assay, plasmin (Boc-Val-Leu-Lys-AMC); details: substrate Boc-Val-Leu-Lys-AMC
T7 construct: plasmin (Enzyme Research Laboratories, South Bend, Ind.); purchased Enzyme Research Laboratories
T7 sequence (P00747 97-580 limits assumed): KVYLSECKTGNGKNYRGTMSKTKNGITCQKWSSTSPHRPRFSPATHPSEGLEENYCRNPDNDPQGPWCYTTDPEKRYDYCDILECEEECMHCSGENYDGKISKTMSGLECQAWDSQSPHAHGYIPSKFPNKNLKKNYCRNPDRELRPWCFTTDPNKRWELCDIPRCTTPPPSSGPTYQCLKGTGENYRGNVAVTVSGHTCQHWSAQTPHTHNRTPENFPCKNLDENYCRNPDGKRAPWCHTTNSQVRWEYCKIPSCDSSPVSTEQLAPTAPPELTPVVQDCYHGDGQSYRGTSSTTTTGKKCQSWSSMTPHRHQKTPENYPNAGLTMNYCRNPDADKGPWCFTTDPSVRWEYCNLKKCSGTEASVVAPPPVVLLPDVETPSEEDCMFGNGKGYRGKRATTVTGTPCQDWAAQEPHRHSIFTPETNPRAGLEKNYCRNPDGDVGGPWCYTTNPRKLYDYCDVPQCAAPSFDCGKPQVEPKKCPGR
T7 sequence (P00747 581-810 limits assumed): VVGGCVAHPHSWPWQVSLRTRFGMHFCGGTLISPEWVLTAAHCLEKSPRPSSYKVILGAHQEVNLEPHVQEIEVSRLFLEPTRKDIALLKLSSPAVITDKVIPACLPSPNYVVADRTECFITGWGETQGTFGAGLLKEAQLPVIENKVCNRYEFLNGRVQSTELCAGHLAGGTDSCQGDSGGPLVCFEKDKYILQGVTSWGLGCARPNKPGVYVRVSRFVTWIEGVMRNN
Protocol: as §1, §2, §3, §4

[8] = target: T8, human plasma kallikrein (Homo sapiens, UniProt P03952); assay: Enzyme inhibition assay (fluorogenic substrate H-Pro-Phe-Arg-AMC); details: Kallikrein inhibitory activity; 1 nM activated human kallikrein, 500 μM H-Pro-Phe-Arg-AMC, 1 hour room temperature; read-out: Avg. IC50
T8 construct: purchased Enzyme Research Laboratories HPKa 1303
T8 sequence (P03952 20-390 limits assumed): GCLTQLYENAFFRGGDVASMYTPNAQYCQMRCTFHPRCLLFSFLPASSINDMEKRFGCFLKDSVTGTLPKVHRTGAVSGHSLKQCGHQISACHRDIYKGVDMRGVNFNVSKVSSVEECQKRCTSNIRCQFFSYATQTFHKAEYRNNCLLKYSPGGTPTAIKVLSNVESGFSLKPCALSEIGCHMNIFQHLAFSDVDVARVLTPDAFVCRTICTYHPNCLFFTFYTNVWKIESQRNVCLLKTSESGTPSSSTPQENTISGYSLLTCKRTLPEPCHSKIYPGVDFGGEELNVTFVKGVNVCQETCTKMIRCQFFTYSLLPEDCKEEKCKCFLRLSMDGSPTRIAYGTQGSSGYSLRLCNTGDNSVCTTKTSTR
T8 sequence (P03952 391-638 limits assumed): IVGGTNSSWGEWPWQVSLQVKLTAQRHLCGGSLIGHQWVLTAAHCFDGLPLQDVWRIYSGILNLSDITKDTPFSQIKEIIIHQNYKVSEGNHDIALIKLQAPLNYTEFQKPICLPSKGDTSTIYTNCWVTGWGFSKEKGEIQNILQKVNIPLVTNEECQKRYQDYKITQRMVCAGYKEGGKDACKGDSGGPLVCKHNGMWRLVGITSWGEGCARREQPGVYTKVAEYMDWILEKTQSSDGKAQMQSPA
How it was run: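 Activated enzyme (1 nM final) was preincubated 5 min at room temperature with peptides in 10-point 8-fold dilutions. The buffer was 50 mM Tris-HCl pH 7.2, 150 mM NaCl, 10 mM CaCl2, 0.05% Brij-35. After 1 h at room temperature with 500 μM substrate (final), fluorescence was read at 360/460 nm to derive IC50.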

IC50 [1]	IC50 [2]	IC50 [3]	IC50 [4]	IC50 [5]	IC50 [6]	IC50 [7]	IC50 [8]	SMILES
> 100 µM	> 100 µM	> 100 µM	> 8.3 µM	> 100 µM	> 100 µM	> 100 µM	0.0129 µM	CC[C@H](C)[C@@H]1NC(=O)[C@H](CO)NC(=O)[C@H](CCC(=O)O)NC(=O)CCSCc2cccc(c2)CSC[C@@H](C(=O)N[C@@H](CCCNC(=N)N)C(=O)N[C@H](C(N)=O)C(C)C)NC1=O [Compound R2051, [mXylyl(1,5)](des-NH2)C-ESICRV-NH2] ([Mpa]ESICRV-NH2; linker 1-5 via mXylylene)
> 100 µM	> 100 µM	> 100 µM	> 15 µM	> 100 µM	> 100 µM	> 100 µM	0.0099 µM	CC[C@H](C)[C@@H]1NC(=O)[C@H](CO)NC(=O)[C@H](CCC(=O)O)NC(=O)[C@@H](NC(=O)[C@@H](N)CCSC)CSCc2cccc(c2)CSC[C@@H](C(=O)N[C@@H](CCCNC(=N)N)C(=O)N[C@H](C(N)=O)C(C)(C)C)NC1=O [Compound R2010, [mXylyl(2,6)]MCESICR-Tbg-NH2] (H-MCESICR[Tle]-NH2; linker 2-6 via mXylylene; N-terminus assumed)
> 100 µM	> 100 µM	> 100 µM	> 10.4 µM	> 100 µM	> 100 µM	> 100 µM	0.025 µM	CCC[C@H](N)C(=O)N[C@H]1CSCc2cccc(c2)CSC[C@@H](C(=O)N[C@@H](CCCNC(=N)N)C(=O)N[C@H](C(N)=O)C(C)(C)C)NC(=O)[C@H](c2ccccc2)NC(=O)[C@@H]2CCCN2C(=O)[C@H](CCC(=O)O)NC1=O [Compound R2030, [mXylyl(2,6)]Nvl-CEP-Phg-CR-Tbg-NH2] (H-[Nva]CEP[Phg]CR[Tle]-NH2; linker 2-6 via mXylylene)
> 100 µM	> 7 µM	> 100 µM	> 12.1 µM	> 100 µM	> 100 µM	> 100 µM	0.019 µM	CC[C@H](C)[C@@H]1NC(=O)[C@H](CO)NC(=O)[C@H](CCC(=O)O)NC(=O)[C@@H](NC(C)=O)CSCc2cccc(c2)CSC[C@@H](C(=O)N[C@@H](CCCNC(=N)N)C(=O)N[C@H](C(N)=O)C(C)C)NC1=O [Compound R2023, [mXylyl(1,5)]Ac-CESICRV-NH2] (Ac-CESICRV-NH2; linker 1-5 via mXylylene)
